Cytotoxicity data for 98 compounds are collected here from ChEMBL document CHEMBL3507680, “University of Dundee, Gates Library screen for HepG2 cell viability”.

The nature of the series: Human HepG2 cell viability assay in 384 well format. It is filed as toxicity, cell-based. On the set-up: dose 125 nL, time 70.5 hour; concentration not given beside the values. To be noted: HepG2 cells, read-out: Inhibition.
With `O=C(Cc1ccccc1C(F)(F)F)N1CCC2(CC1)[C@H](O)C[C@@H]2O`, the cytotoxicity at 70.5 h was -6.88%. As for `CCc1ccc(C2CCCN2C(=O)Cc2ccc(NC(C)=O)cc2)o1` (stereo not drawn), the figure is 10.6%; as for `COC(=O)c1ncccc1N1CCC(C(O)c2ccccc2)CC1` (stereo not drawn), -6.81%; as for `COc1cccn(CC(=O)N2CCCC3(CCCO3)CC2)c1=O` (stereo not drawn), -7.92%. Turning to `CCS(=O)(=O)CCNC(=O)NCc1ccccc1-n1cccn1`, the cytotoxicity at 70.5 h came to 2.95%. Consider `CO[C@H]1C[C@@H](O)C12CCN(C(=O)NCc1ccco1)CC2`, for which the cytotoxicity at 70.5 h is 17.8%. For the compound `CCCc1cc(C(=O)NCCN2C(=O)c3ccccc3C2=O)[nH]n1`, the cytotoxicity at 70.5 h was -8.43%. As for `Cn1nnc2c1CCN(Cc1ccco1)C2COCc1ccccc1` (stereo not drawn), the figure is 1.81%; as for `COC(=O)N1CCN(c2ncnc3nc(C)cc(C)c23)CC1`, -4.12%. The figure for `CNC(=O)Cc1ccccc1NC(=O)NCc1ccc(SC)cc1` is 19.8%. As for `O=C(NCCC(O)c1ccco1)c1ccco1` (stereo not drawn), the figure is -5.28%. Consider `Cc1ccccc1CS(=O)(=O)c1nnc(C(C)NC(=O)OC(C)(C)C)o1` (stereo not drawn), for which the cytotoxicity at 70.5 h worked out at 26.9%. In the case of `CS(=O)(=O)N1CCC[C@]2(C[C@@H](Oc3ncccc3F)CO2)C1`, the cytotoxicity at 70.5 h is -5.05%. As for `Cc1noc(C)c1CN1C[C@H](OCc2ccncc2)[C@H]2OCCC[C@H]21`, the figure is -13.2%; as for `CS(=O)(=O)c1nnc(NC(=O)CCc2cccs2)[nH]1`, 17.8%; as for `CCCc1cc(=O)n(CC(=O)NCCOC)c(-n2nc(C)cc2C)n1`, -0.382%. As for `CC(C)Oc1cccc(C(=O)C2CCCN(C(=O)c3ncn[nH]3)C2)c1` (stereo not drawn), the figure is -9.49%. The figure for `Cc1nc2scc(C)n2c1CNc1ccc(C(=O)O)cc1` is 19.2%; for `Cc1nc(NC(=O)NC2CC(=O)N(C(C)C)C2)nn1C(C)C` (stereo not drawn) it is -0.942%.

`CC1CCN(C(=O)CSCc2noc(C(C)C)n2)CC1`: the cytotoxicity at 70.5 h is -4.52%. In the case of `CC(Oc1cc(Cl)cc(Cl)c1)C(=O)NCCS(N)(=O)=O` (stereo not drawn), the cytotoxicity at 70.5 h is -4%. In the case of `COc1coc(C(=O)Nc2nc(-c3ccccn3)cs2)cc1=O`, the cytotoxicity at 70.5 h is -7.13%. As for `c1cnc(NCc2cncc3c2CCN(Cc2cccnc2)C3)nc1`, the figure is -5.03%; as for `CN(CCc1ccccn1)c1cc(N2CCCCC2)ncn1`, -6.31%; as for `COc1ccc(NC(=O)N(CCO)Cc2ccsc2)c(OC)c1`, 0.461%. The figure for `CC(C)[C@]1(O)CN(C(=O)C2(Cn3cccn3)CC2)C[C@H]1C` is -7.77%; for `C[C@@H]1CN(CCCOc2ccc(F)cc2)CC[C@@]1(O)C1CCOCC1` it is 2.59%. As for `Cc1ccccc1Cc1cnc(NC(=O)C2CNC(=O)N2)s1` (stereo not drawn), the figure is 2.49%; as for `CC(=O)NC[C@H]1C[C@@H]2CCN1C[C@@H]2c1cc(-c2cccs2)nn1C`, -10.2%; as for `COc1ccc(C(C)NCc2ccsc2)cc1Cn1cccn1` (stereo not drawn), -3.16%.

On to `Cc1c(C(=O)O)cnn1-c1ccc(-c2nc(C(C)(C)C)no2)cn1`, for which the cytotoxicity at 70.5 h is -8.45%. As to `Cc1cc(CN2CCC(CNS(=O)(=O)c3ccccc3Cl)CC2)c(C)o1`, the cytotoxicity at 70.5 h was -10.4%. The figure for `CN(C)C(=O)N1CCC2(CC1)CN(Cc1ccccn1)C(=O)CO2` is 24.4%; for `COCc1noc(CCC(=O)c2ccc3c(c2)OCCO3)n1` it is -19.1%; for `COC(=O)C(C)N1CCCc2cc(OC)ccc2C1` (stereo not drawn) it is -4.67%. As for `COC(=O)c1cccc(CNC(=O)CCC(F)(F)F)c1`, the figure is -3.83%. Regarding `Cc1nc(C)n(C2CCCN(C(=O)Cc3csc(C(C)C)n3)C2)n1` (stereo not drawn), the cytotoxicity at 70.5 h is -3.36%. As for `O=C(c1ccno1)N1CCCC(c2ncncc2-c2ccncc2)C1` (stereo not drawn), the figure is -9.77%; as for `Cc1ccccc1C(Nc1ncnc2c1CCNC2)c1ccccc1` (stereo not drawn), -1.58%; as for `Cc1cc(C(=O)N2C[C@H](C(C)C)[C@@H](N(C)C)C2)cs1`, -2.9%. As for `Cc1ccc(-c2nc(CN3CCN(CC(=O)N(C)C)CC3)cs2)o1`, the figure is -5.37%; as for `CCCS(=O)(=O)N1CCC2(CN(c3cnn(C)c3)C(=O)CN2C)C1` (stereo not drawn), 0.667%; as for `Cn1ccnc1-c1cn(CCCc2csc(N)n2)nn1`, -15.7%. As for `Cc1ccoc1C(=O)N1CCn2nnc(COc3cccnc3)c2C1`, the figure is -11.5%; as for `CCO[C@H]1CO[C@@]2(CCCN(Cc3scnc3C)C2)C1`, 14.7%.

As for `Cc1cnn(CC2CN(Cc3csc(C(C)C)n3)CCO2)c1` (stereo not drawn), the cytotoxicity at 70.5 h worked out at 20.8%. Consider `CCc1cnc(N2C[C@H]3CN(Cc4ccc(OC)cc4)C(=O)[C@H]3C2)nc1`, for which the cytotoxicity at 70.5 h was -2.79%. The figure for `COCC(=O)N1CCN(Cn2nc(C)c(Br)c2C)CC1` is -2.69%. As for `CNc1ccnc(N2C[C@@H](C)[C@](O)(C3CCC3)C2)n1`, the figure is 26%. `COCCNC(=O)C1CN(Cc2cccnc2)Cc2ccnn2C1` (stereo not drawn): the cytotoxicity at 70.5 h is -13.8%. As for `Cc1cc(CNC(=O)NCc2cccs2)no1`, the figure is -5.03%; as for `CC(C)(C)C(=O)NCCC(=O)NS(=O)(=O)c1ccc2c(c1)OCCO2`, 0.749%; as for `O=C(c1cnccn1)N1CCCC(Cn2cc(C3CC3)nn2)C1` (stereo not drawn), 15.7%.

As to `CNC(=O)[C@H]1C[C@@H]2CN(C(=O)c3cnc(C)cn3)C[C@@H]2N1C`, the cytotoxicity at 70.5 h was -8.55%.

Take `Cc1cc(C(=O)N2CCC(NC(=O)c3cccnc3)CC2)c(C)o1`: the cytotoxicity at 70.5 h is -9.02%. With `COc1cccc(C(=O)N2CCC(Nc3ccc(C)nn3)CC2)c1`, the cytotoxicity at 70.5 h turned out to be 1.25%.

As to `Cc1ncc(C(=O)N2C[C@H](CO)C[C@H](CN3CCOCC3)C2)c(=O)[nH]1`, the cytotoxicity at 70.5 h stood at 3.07%.

Turning to `Cc1[nH]nc2ncc(C(=O)N3CCCC3c3noc(C(C)C)n3)cc12` (stereo not drawn), the cytotoxicity at 70.5 h is -19.5%. The figure for `CCOc1cccc(CNC(=O)C(C)(C)C#N)c1OC(F)F` is -2.64%. The figure for `CC(=O)N1CC2(CCN(Cc3ccc(Cl)cc3)C2)Cc2ccccc21` (stereo not drawn) is 5.14%; for `Cc1cc2[nH]c(CN3CCOC(c4ccc(F)cc4)C3)cc(=O)n2n1` (stereo not drawn) it is -3.51%; for `CSCCc1nc(C(C)C)nn1-c1ccncc1C` it is -12.8%. The figure for `Cc1nc(CNC(=O)Nc2cc(F)ccc2N2CCN(C)CC2)no1` is -2.28%; for `O=C(NCc1cc[nH]n1)NCC(O)c1ccc(F)cc1` (stereo not drawn) it is 6.85%. `COc1cc(Br)c(CNc2ccn(CCC(N)=O)n2)cc1OC`: the cytotoxicity at 70.5 h was -4.79%.

With `COc1cc(-c2nc(CN(CCO)CCO)c(C)o2)ccc1F`, the cytotoxicity at 70.5 h came out at 2.15%. As for `CC(C)CCc1n[nH]c(C(=O)O)c1Cl`, the cytotoxicity at 70.5 h was 16.9%. As for `Cc1cc2nc(C(C)C)cc(NC(C)c3nncn3C)n2n1` (stereo not drawn), the figure is -17.3%; as for `CNC(=O)[C@@]12CCO[C@@H]1CCN(S(=O)(=O)c1ccccc1)C2`, -6.28%.

For `O=C(NC1CCN(CC2CCCC2)C1)N1CCC(OCC2CC2)CC1` (stereo not drawn), the cytotoxicity at 70.5 h amounted to 6.83%. Regarding `Cc1cc(CNC(=O)N(Cc2ccc(F)cc2F)C2CC2)no1`, the cytotoxicity at 70.5 h is 15.5%.

Regarding `CCN(CC1CCCO1)C(=O)Nc1cc(C)ccc1S(C)(=O)=O` (stereo not drawn), the cytotoxicity at 70.5 h is -1.66%. With `CC(CNC(=O)c1c[nH]nn1)Oc1cccc(Br)c1` (stereo not drawn), the cytotoxicity at 70.5 h is -11.4%. As for `COCCC(=O)N1CC[C@@H]2O[C@@H](C)C[C@H]2C1`, the figure is -15.5%; as for `CC(Cn1cccn1)NC(=O)NCc1ccnc(OC2CCCC2)c1` (stereo not drawn), -8.79%; as for `COc1cccc(N2CCN(C(=O)CCO)CC2=O)c1`, -8.46%. As for `O=c1c2sccc2ncn1Cc1cc(C2CC2)[nH]n1`, the figure is -8.84%; as for `CN(C)Cc1csc(-c2nccn2CCc2cccnc2)c1`, -8%. As for `COc1cccc(CNCc2cccnc2-n2cccn2)c1OC`, the figure is 19.6%; as for `O=C(CC(F)(F)F)N1CCc2onc(Cn3cccn3)c2C1`, -13.4%; as for `CCc1c(C)sc2c1c(N)nc(=O)n2CCN1CCOCC1`, 9.55%. In the case of `Cc1oc(-c2nc(C#N)c(NC(C)C)o2)cc1S(=O)(=O)N1CCCC1`, the cytotoxicity at 70.5 h was -25.3%. For the compound `COCCN1CCO[C@@H]2CN(Cc3ccccc3OC)C[C@@H]2C1`, the cytotoxicity at 70.5 h is -0.773%. With `Cc1cnn(CC(C)NCC(=O)NC2CCOCC2)c1` (stereo not drawn), the cytotoxicity at 70.5 h came out at 18.5%. As for `CC(O)CN1CCN(C(=O)c2cccn2Cc2ccccc2)CC1` (stereo not drawn), the figure is -1.63%. Consider `CCN1CCN(C(=O)Cn2nc(C(F)(F)F)c(Br)c2C2CC2)CC1`, for which the cytotoxicity at 70.5 h is -7.97%.

Take `Cc1cnn(CC2CN(Cc3nc(-c4cccnc4)no3)CCO2)c1` (stereo not drawn): the cytotoxicity at 70.5 h is -0.171%.

Consider `Cc1cn(Cc2ccccc2)nc1N`, for which the cytotoxicity at 70.5 h was 2.81%. As to `O=C1N(CC2CC2)C(c2cncs2)NC12CCCC2` (stereo not drawn), the cytotoxicity at 70.5 h is -4.01%. As for `CC(C)NC(=O)N1CCc2onc(C(=O)NCCN(C)C)c2C1`, the figure is -2.85%; as for `COc1ccc(C(C)NC(=O)NCCc2ccc(C)nc2)c(OC)c1` (stereo not drawn), 24%. As for `CC(=O)N1CCC(Cc2ccc(-c3ccnn3C)nc2)CC1`, the figure is -7.13%. As for `O=C(c1cc[nH]n1)N1CCCC1C1CCN(Cc2ccccc2)CC1` (stereo not drawn), the figure is -3.3%. For the compound `CC(C)NC(=O)CN1CCCNCC1`, the cytotoxicity at 70.5 h is -0.253%. Consider `CCN(Cc1ccoc1)C(=O)C1CN(C(=O)OC(C)(C)C)C1`, for which the cytotoxicity at 70.5 h is -13.5%. Turning to `O=C(CC1CCCC1)N1CCN(c2ccc(-n3cncn3)nn2)CC1`, the cytotoxicity at 70.5 h is -7.71%. As for `CC(C)NC(=O)[C@@H]1C[C@H](N)CN1C(=O)c1cc2c([nH]c1=O)CCCC2`, the figure is -7.39%; as for `Cc1ccc(-c2ccnc(N[C@H]3COC[C@@H]3N3CCCCC3)n2)c(C)n1`, -11.2%.
